Read-outs that look alike come from different tables or passages of the source.
Assays:
[1] = system: Influenza A/H3N2 (strain X-31); experiment: microbe, parasite or virus in culture; assay type: cell-based; conditions: H3N2, MDCK, in Homo sapiens, 72 h
[2] = system: Influenza A/H3N2 (strain A/HK/7/87); experiment: microbe, parasite or virus in culture; assay type: cell-based; conditions: H3N2, MDCK, in Homo sapiens, 72 h
influenza virus = assay type: cell-based, human influenza virus; conditions: Ratio of MCC to average EC50, MDCK cells
MDCK cells = conditions: minimal changes in cell morphology by microscopy
[3] = system: Human embryonic lung (HEL) fibroblasts
[4] = system: human cervix epithelial (HeLa) cells
[5] = system: African green monkey kidney (Vero) cells
in vitro = conditions: dog
[6] = read-out: Antiviral EC50, Influenza A/H3N2 (strain X-31), CPE
[7] = read-out: Antiviral EC50, Influenza A/H3N2 (strain X-31), MTS
[8] = read-out: Antiviral EC50, Influenza A/H3N2 (strain A/HK/7/87), CPE
[9] = read-out: Antiviral EC50, Influenza A/H3N2 (strain A/HK/7/87), MTS

Structure (SMILES) | EC50 [1, 6] [µM] | EC50 [1, 7] [µM] | EC50 [2, 8] [µM] | EC50 [2, 9] [µM] | Selectivity index (influenza virus) | Cytotoxicity MCC (minimum cytotoxic concentration) (MDCK cells) [µM] | Cytotoxic concentration MCC, HEL [3] [µM] | Cytotoxic concentration MCC, HeLa [4] [µM] | Cytotoxic concentration MCC, Vero [5] [µM] | CC50 (in vitro) [µM]
COC(=O)[C@H]1NC(=O)[C@H]2NC(=O)[C@H](NC(=O)[C@@H]3NC(=O)[C@H]4NC(=O)[C@H](NC(=O)[C@H](N)c5ccc(O)c(c5)Oc5cc4cc(O)c5C)[C@H](O)c4ccc(cc4)Oc4cc3cc(c4O)Oc3ccc(cc3)[C@H]2O)c2ccc(O)c(c2)-c2c(O)cc(O)cc21 [Compound 2, aglycoristocetin] | 8.4 ± 2.4 | 10.7 ± 2.5 | 4.3 ± 2.9 | 3.2 ± 1.6 | 15 | 100 | ≥100 | ≥100 | 100 | 44 ± 10
NC(=O)c1ncn([C@@H]2O[C@H](CO)[C@@H](O)[C@H]2O)n1 [Ribavirin] | 9 ± 0.04 | 9.6 ± 2.2 | 8 ± 2.2 | 7.6 ± 3 | – | ≥100 | – | – | – | –
NC12CC3CC(CC(C3)C1)C2 [Amantadine] | 54 ± 33 | 45 ± 21 | 3.9 ± 4.1 | 3.2 ± 4 | – | >100 | – | – | – | > 100
CCC(CC)O[C@@H]1C=C(C(=O)O)C[C@H](N)[C@H]1NC(C)=O [Oseltamivir carboxylate] | 0.027 ± 0.013 | 0.064 ± 0.078 | 0.26 ± 0.3 | 0.23 ± 0.23 | – | >100 | – | – | – | > 100

— paper PMC7125606 (Antiviral Research, 2009)
